What was measured:
[1] = tested on: rats; experiment: Sedation observation in morphine-treated rats; conditions: morphine 10 mg/kg IV plus vehicle
[2] = tested on: freely moving adult male Sprague-Dawley rats; experiment: Whole-body plethysmography of ventilatory parameters in morphine-treated rats; conditions: morphine 10 mg/kg IV; for EF50, ml/sec - Total Response (% change) / Expiratory Drive (TV/Te), ml/sec - Total Response (% change) / Expiratory Time (Te), sec - Total Response (% change) / Frequency, breaths/min - Total Response (% change) / Inspiratory Drive (TV/Ti), ml/sec - Total Response (% change) / Inspiratory Time (Ti), sec - Total Response (% change) / Inspiratory Time/Expiratory Time - Total Response (% change) / Minute Ventilation, ml/min - Total Response (% change) / Peak Expiratory Flow, ml/sec - Total Response (% change) / Peak Expiratory Flow/Peak Inspiratory Flow - Total Response (% change) / Peak Inspiratory Flow, ml/sec - Total Response (% change) / Tidal Volume (TV), ml - Total Response (% change): over the 15 min before drug injection
[3] = tested on: adult male rats; experiment: Hargreaves Hind-paw Latency Test, morphine 1 mg/kg; format: in vivo, rat; conditions: given alone, morphine sulfate 1 mg/kg IV
[4] = freely moving rats, then d-cystine diEE 500 μmol/kg IV 15 min later
[5] = rats that subsequently received D-Cystine diEE
[6] = rats that subsequently received vehicle, D-Cystine diEE study
[7] = rats that subsequently received D-Cystine
[8] = rats that subsequently received L-NACme
[9] = rats that subsequently received vehicle, D-Cystine study
[10] = rats that subsequently received vehicle, L-NACme study

## CN1CC[C@]23c4c5ccc(O)c4O[C@H]2[C@@H](O)C=C[C@H]3[C@H]1C5 [Morphine, morphine]
[1]
  time for which full mobility was not evident: at least 2 h
[2]; [4]
  changes in EF50: sustained increase
  changes in expiratory drive (TV/Te): relatively pronounced but shorter-lived decrease
  changes in expiratory time (Te): decreases in Te
  changes in frequency of breathing (Freq): brief increase in Freq that was followed a relatively transient decrease
  changes in inspiratory drive (TV/Ti): prompt and sustained decrease
  changes in inspiratory time (Ti): sustained increases in Ti
  changes in minute ventilation (MV): transient increase in MV that was followed by a sustained decrease
  changes in peak expiratory flow (PEF): lesser decreases
  changes in peak inspiratory flow (PIF): pronounced and sustained decrease
  changes in tidal volume (TV): prompt and sustained decrease
[2]; [5]
  EF50, ml/sec - Total Response (% change): +33.4 ± 15.0 %
  Expiratory Drive (TV/Te), ml/sec - Total Response (% change): −14.6 ± 10.2%
  Expiratory Time (Te), sec - Total Response (% change): −2.0 ± 6.1%
  Frequency, breaths/min - Total Response (% change): −1.9 ± 6.6%
  Inspiratory Drive (TV/Ti), ml/sec - Total Response (% change): −44.5 ± 5.5 %
  Inspiratory Time (Ti), sec - Total Response (% change): +40.2 ± 6.3 %
  Inspiratory Time/Expiratory Time - Total Response (% change): −27.1 ± 6.2 %
  Minute Ventilation, ml/min - Total Response (% change): −28.4 ± 6.4 %
  Peak Expiratory Flow, ml/sec - Total Response (% change): −16.2 ± 5.7 %
  Peak Expiratory Flow/Peak Inspiratory Flow - Total Response (% change): +21.5 ± 6.7 %
  Peak Inspiratory Flow, ml/sec - Total Response (% change): −29.7 ± 2.7 %
  Tidal Volume (TV), ml - Total Response (% change): −26.3 ± 7.4 %
  EF50, ml/sec - Peak Responses (% change): +122 ± 27 %
  Expiratory Drive (TV/Te), ml/sec - Peak Responses (% change): −46.2 ± 7.8 %
  Expiratory Time (Te), sec - Peak Responses (% change): −32.4 ± 17.6%
  Frequency, breaths/min - Peak Responses (% change): −20.0 ± 4.5 %
  Inspiratory Drive (TV/Ti), ml/sec - Peak Responses (% change): −53.7 ± 6.0 %
  Inspiratory Time (Ti), sec - Peak Responses (% change): +41.3 ± 7.1 %
  Inspiratory Time/Expiratory Time - Peak Responses (% change): −41.7 ± 7.8 %
  Minute Ventilation, ml/min - Peak Responses (% change): −48.5 ± 6.0 %
  Peak Expiratory Flow, ml/sec - Peak Responses (% change): −34.8 ± 6.7 %
  Peak Expiratory Flow/Peak Inspiratory Flow - Peak Responses (% change): +26.7 ± 5.4 %
  Peak Inspiratory Flow, ml/sec - Peak Responses (% change): −43.2 ± 2.7 %
  Tidal Volume (TV), ml - Peak Responses (% change): −35.8 ± 6.9 %
[2]; [6]
  EF50, ml/sec - Total Response (% change): +30.5 ± 14.7 %
  Expiratory Drive (TV/Te), ml/sec - Total Response (% change): −22.3 ± 13.6%
  Expiratory Time (Te), sec - Total Response (% change): −4.7 ± 6.0%
  Frequency, breaths/min - Total Response (% change): +0.3 ± 4.3%
  Inspiratory Drive (TV/Ti), ml/sec - Total Response (% change): −44.3 ± 7.1 %
  Inspiratory Time (Ti), sec - Total Response (% change): +38.6 ± 2.9 %
  Inspiratory Time/Expiratory Time - Total Response (% change): −24.1 ± 4.7 %
  Minute Ventilation, ml/min - Total Response (% change): −28.6 ± 7.2 %
  Peak Expiratory Flow, ml/sec - Total Response (% change): −17.4 ± 6.1 %
  Peak Expiratory Flow/Peak Inspiratory Flow - Total Response (% change): +27.6 ± 7.0 %
  Peak Inspiratory Flow, ml/sec - Total Response (% change): −29.5 ± 8.1 %
  Tidal Volume (TV), ml - Total Response (% change): −29.3 ± 7.6 %
  EF50, ml/sec - Peak Responses (% change): +133 ± 42 %
  Expiratory Drive (TV/Te), ml/sec - Peak Responses (% change): −51.5 ± 10.1 %
  Expiratory Time (Te), sec - Peak Responses (% change): −29.3 ± 17.1%
  Frequency, breaths/min - Peak Responses (% change): −21.5 ± 3.4 %
  Inspiratory Drive (TV/Ti), ml/sec - Peak Responses (% change): −52.7 ± 5.4 %
  Inspiratory Time (Ti), sec - Peak Responses (% change): +37.9 ± 3.0 %
  Inspiratory Time/Expiratory Time - Peak Responses (% change): −38.0 ± 4.2 %
  Minute Ventilation, ml/min - Peak Responses (% change): −51.2 ± 6.3 %
  Peak Expiratory Flow, ml/sec - Peak Responses (% change): −38.1 ± 8.5 %
  Peak Expiratory Flow/Peak Inspiratory Flow - Peak Responses (% change): +30.2 ± 3.4 %
  Peak Inspiratory Flow, ml/sec - Peak Responses (% change): −45.6 ± 7.0 %
  Tidal Volume (TV), ml - Peak Responses (% change): −42.9 ± 8.7 %
[2]; [7]
  Frequency: Morphine - first 15 min response (%): −4.7 ± 3.1%
  Frequency: Morphine - peak (+) response (%): +62 ± 7 %
  Frequency: Morphine peak (−) response (%): −23 ± 4 %
  Minute Ventilation: Morphine - first 15 min response (%): −38 ± 5 %
  Minute Ventilation: Morphine - peak (+) response (%): +14 ± 3 %
  Minute Ventilation: Morphine peak (−) response (%): −61 ± 8 %
  Tidal Volume: Morphine - first 15 min response (%): −35 ± 5 %
  Tidal Volume: Morphine - peak (+) response (%): −30 ± 4 %
  Tidal Volume: Morphine peak (−) response (%): −51 ± 6 %
[2]; [8]
  Frequency: Morphine - first 15 min response (%): −4.9 ± 2.8%
  Frequency: Morphine - peak (+) response (%): +42 ± 6 %
  Frequency: Morphine peak (−) response (%): −22 ± 4 %
  Minute Ventilation: Morphine - first 15 min response (%): −35 ± 3 %
  Minute Ventilation: Morphine - peak (+) response (%): +20 ± 6 %
  Minute Ventilation: Morphine peak (−) response (%): −54 ± 4 %
  Tidal Volume: Morphine - first 15 min response (%): −34 ± 3 %
  Tidal Volume: Morphine - peak (+) response (%): −16 ± 6 %
  Tidal Volume: Morphine peak (−) response (%): −40 ± 6 %
[2]; [9]
  Frequency: Morphine - first 15 min response (%): −3.8 ± 2.6%
  Frequency: Morphine - peak (+) response (%): +57 ± 8 %
  Frequency: Morphine peak (−) response (%): −21 ± 3 %
  Minute Ventilation: Morphine - first 15 min response (%): −39 ± 4 %
  Minute Ventilation: Morphine - peak (+) response (%): +9 ± 3 %
  Minute Ventilation: Morphine peak (−) response (%): −60 ± 9 %
  Tidal Volume: Morphine - first 15 min response (%): −37 ± 6 %
  Tidal Volume: Morphine - peak (+) response (%): −32 ± 5 %
  Tidal Volume: Morphine peak (−) response (%): −49 ± 5 %
[2]; [10]
  Frequency: Morphine - first 15 min response (%): −4.0 ± 2.1%
  Frequency: Morphine - peak (+) response (%): +47 ± 6 %
  Frequency: Morphine peak (−) response (%): −24 ± 3 %
  Minute Ventilation: Morphine - first 15 min response (%): −36 ± 3 %
  Minute Ventilation: Morphine - peak (+) response (%): +19 ± 5 %
  Minute Ventilation: Morphine peak (−) response (%): −53 ± 5 %
  Tidal Volume: Morphine - first 15 min response (%): −33 ± 4 %
  Tidal Volume: Morphine - peak (+) response (%): −19 ± 3 %
  Tidal Volume: Morphine peak (−) response (%): −38 ± 5 %
[3]; D-cystine diME 500 μmol/kg IV, FIG. 26 study
  Hargreaves hind-paw withdrawal latency: 16.3 ± 1.8 s
[3]; L-cystine diME 500 μmol/kg IV, FIG. 24 study
  Hargreaves hind-paw withdrawal latency: 19.5 ± 0.4 s

— US12083089B2, “Compositions and methods for stimulating ventilatory and/or respiratory drive” (CASE WESTERN RESERVE UNIVERSITY, priority 2015, dated 2024)
